Measured values from the supplement of paper PMC7840683.
± gives the standard deviation of the averaged measurements.

System: HepaRG
Assay: LDH release cytotoxicity, % of total lysis control; higher = more cytotoxic
Conditions: 48 h
Summary of the method: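 Duplicate wells of single-lot HepaRG cells, grown on collagen I-coated 96-well plates, received eight-point half-log series of test chemicals with 100 µM as the top concentration. Exposure lasted 48 h in serum-free induction medium with 0.5% DMSO, while total lysis wells received 0.1% Triton X. Resorufin fluorescence (CytoTox-ONE, Tecan Safire) was used to quantify LDH leaked into 50 µL of spent medium. Values for percent cytotoxicity were normalized to on-plate vehicle and total lysis controls and averaged across the duplicates.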

Row | SMILES | LDH release cytotoxicity (0.03162 µM) | LDH release cytotoxicity (0.1 µM) | LDH release cytotoxicity (0.3162278 µM) | LDH release cytotoxicity (1 µM) | LDH release cytotoxicity (3.16228 µM) | LDH release cytotoxicity (10 µM) | LDH release cytotoxicity (31.6228 µM) | LDH release cytotoxicity (100 µM) | LDH release cytotoxicity (0.0320971 µM) | LDH release cytotoxicity (0.1015 µM) | LDH release cytotoxicity (0.320971 µM) | LDH release cytotoxicity (1.015 µM) | LDH release cytotoxicity (3.2097118 µM) | LDH release cytotoxicity (10.15 µM) | LDH release cytotoxicity (32.0971 µM) | LDH release cytotoxicity (101.5 µM)
1 | Cc1cc(C)cc(C)c1 [1,3,5-Trimethylbenzene] | -1.84 ± 0.57% | -1.84 ± 0.86% | -2.21 ± 0.96% | -2.65 ± 0.24% | -2.52 ± 0.57% | -1.42 ± 0.71% | -0.727 ± 0.4% | 1.41 ± 0.37% | – | – | – | – | – | – | – | –
2 | Oc1ccccc1Cl [2-Chlorophenol] | -2.95 ± 2.4% | -4.22 ± 0.094% | -4.63 ± 0.13% | -4.14 ± 0.96% | -3.68 ± 0.21% | -3.65 ± 0.22% | -2.05 ± 0.13% | 1.5 ± 0.076% | – | – | – | – | – | – | – | –
3 | CN1COCN(Cc2cnc(Cl)s2)C1=N[N+](=O)[O-] [Thiamethoxam] | -0.296 ± 0.14% | -1.13 ± 0.85% | -0.0609 ± 0.4% | -1.83 ± 0.5% | -1.49 ± 0.41% | 0.119 ± 1.6% | -1.01 ± 0.87% | 0.102 ± 1.4% | – | – | – | – | – | – | – | –
4 | COC(=O)C(C)Oc1ccc(Oc2ccc(Cl)cc2Cl)cc1 (racemic) [Methyl (RS)-2-[4-(2,4-dichlorophenoxy)phenoxy]propionate] | -0.971 ± 1.5% | -1.59 ± 0.12% | -1.59 ± 1.4% | -2.24 ± 0.54% | -1.38 ± 0.41% | -1.28 ± 0.4% | -1.8 ± 0.099% | -0.104 ± 0.18% | – | – | – | – | – | – | – | –
5 | CC(C)(O)c1ccc(CNC(=O)c2cccnc2Oc2ccc3nonc3c2)cc1 | -0.138 ± 0.4% | -0.0235 ± 1.2% | -1.43 ± 0.089% | -1.1 ± 0.77% | -0.724 ± 0.6% | -0.975 ± 0.052% | -1.98 ± 0.84% | -2.05 ± 0.18% | – | – | – | – | – | – | – | –
6 | CNCc1cc(F)ccc1Oc1ccc(Cl)c(Cl)c1 | -11 ± 1.1% | -10.04 ± 0.031% | -10.6 ± 1.2% | -10.4 ± 0.19% | -11.2 ± 0.63% | -10 ± 1.1% | -8.03 ± 1.4% | 75.6 ± 5.6% | – | – | – | – | – | – | – | –
7 | Oc1ccc(C(c2ccc(O)cc2)C(Cl)(Cl)Cl)cc1 [2,2-Bis(4-hydroxyphenyl)-1,1,1-trichloroethane] | – | – | – | – | – | – | – | – | 1.05 ± 0.97% | 0.207 ± 0.19% | 0.656 ± 0.4% | 1.23 ± 0.62% | 0.563 ± 0.45% | 0.192 ± 0.82% | 1.16 ± 0.45% | 2.4 ± 0.33%
8 | Nc1ccc(S(=O)(=O)c2ccc(N)cc2)cc1 [Dapsone] | -1.24 ± 0.6% | -0.379 ± 0.2% | -1.16 ± 0.45% | -0.536 ± 0.3% | 0.1 ± 0.69% | -0.392 ± 0.19% | 0.105 ± 1% | 1.63 ± 0.23% | – | – | – | – | – | – | – | –
9 | N#CCCCCC#N [Hexanedinitrile] | -0.442 ± 0.26% | -0.226 ± 0.15% | 0.0594 ± 0.38% | -1 ± 1% | -0.445 ± 0.31% | -0.461 ± 0.08% | -0.494 ± 0.13% | 0.294 ± 0.37% | – | – | – | – | – | – | – | –
10 | Cc1ccn2nc(S(=O)(=O)Nc3c(F)cccc3F)nc2n1 [Flumetsulam] | -2 ± 0.6% | -0.7 ± 1.5% | -1.43 ± 3% | -1.43 ± 1.5% | -1.84 ± 0.62% | 0.538 ± 0.94% | 0.194 ± 2% | 1.86 ± 1.8% | – | – | – | – | – | – | – | –
11 | Cc1cccc(C)c1O [2,6-Dimethylphenol] | -1.24 ± 1.2% | -0.897 ± 0.56% | -1.931 ± 0.0097% | -1.91 ± 0.97% | -1.66 ± 0.091% | -1.73 ± 0.19% | -0.524 ± 1.1% | 0.122 ± 0.94% | – | – | – | – | – | – | – | –
12 | CC(C)c1cccc(C(C)C)c1NC(=O)NS(=O)(=O)c1cc(C(C)(C)O)co1 | 0.635 ± 1.6% | 0.0343 ± 1.8% | -0.878 ± 0.1% | -1.57 ± 0.35% | -1.32 ± 0.93% | -1.29 ± 0.37% | -1.24 ± 1.1% | -0.335 ± 0.29% | – | – | – | – | – | – | – | –
13 | Cc1ccc(S(=O)(=O)NC(=O)NN2CCCCCC2)cc1 [Tolazamide] | -1.21 ± 0.35% | -1.21 ± 0.45% | -1.26 ± 0.85% | -1.16 ± 0.26% | -0.648 ± 0.45% | -0.378 ± 0.45% | -0.0919 ± 0.11% | 1.58 ± 1.5% | – | – | – | – | – | – | – | –
14 | CCN(CC)N=O [N-Nitrosodiethylamine] | -0.893 ± 0.61% | -0.536 ± 0.29% | -0.901 ± 0.49% | -0.963 ± 0.049% | -0.649 ± 0.33% | -1.08 ± 0.2% | 0.447 ± 0.97% | 0.842 ± 0.95% | – | – | – | – | – | – | – | –
15 | Cc1ccc(O)c(C)c1 [2,4-Dimethylphenol] | -0.236 ± 0.8% | -1.06 ± 0.065% | -0.554 ± 0.3% | -0.084 ± 0.78% | 0.0582 ± 0.56% | -0.172 ± 0.66% | -0.59 ± 0.59% | -0.251 ± 0.47% | – | – | – | – | – | – | – | –
16 | c1ccc2c(c1)oc1ccccc12 [Dibenzofuran] | -0.992 ± 0.24% | -1.07 ± 0.44% | -1.34 ± 0.76% | -1.2 ± 0.83% | -1.19 ± 1% | -0.829 ± 0.93% | -0.8185 ± 0.0015% | 1.45 ± 0.45% | – | – | – | – | – | – | – | –
17 | CCCCCC(=O)O [Hexanoic acid] | -2.52 ± 0.086% | -1.97 ± 0.41% | -0.0407 ± 0.14% | -1.44 ± 0.26% | -1.32 ± 0.1% | -1.49 ± 1.2% | -0.358 ± 0.055% | 0.23 ± 0.78% | – | – | – | – | – | – | – | –
18 | NC1CCCCC1 [Cyclohexylamine] | -1.45 ± 0.53% | -1.58 ± 0.49% | -1.84 ± 0.28% | -2.2 ± 0.96% | -2.32 ± 0.31% | -1.74 ± 0.66% | -0.752 ± 0.11% | 0.0324 ± 0.072% | – | – | – | – | – | – | – | –
